Target: phosphorylated p-38-alpha kinase (Homo sapiens, UniProt Q16539)
Assay: P-38 alpha kinase assay P1 (coupled spectrophotometric, 2 h pre-incubation)
Type: biochemical
Settings: method P1 (2 h pre-incubation); read-out: P-38 Data

phosphorylated p-38-alpha kinase, sequence (Q16539 1-360 isoform Q16539-2): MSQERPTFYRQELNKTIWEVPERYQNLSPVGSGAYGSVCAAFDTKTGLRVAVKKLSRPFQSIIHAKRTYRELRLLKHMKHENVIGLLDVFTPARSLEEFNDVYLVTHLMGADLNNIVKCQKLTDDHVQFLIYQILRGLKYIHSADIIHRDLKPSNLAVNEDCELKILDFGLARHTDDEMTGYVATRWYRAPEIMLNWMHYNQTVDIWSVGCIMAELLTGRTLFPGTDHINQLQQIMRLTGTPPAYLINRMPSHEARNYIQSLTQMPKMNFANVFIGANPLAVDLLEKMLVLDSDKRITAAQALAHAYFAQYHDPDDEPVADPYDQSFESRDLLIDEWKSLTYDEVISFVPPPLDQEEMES

Row | SMILES | IC50 [nM]
1 | O=C(O)Cc1cccc(-n2nc(-c3cccs3)cc2NC(=O)Nc2cccc3ccccc23)c1 [Example 364, 2-(3-(5-(3-(naphthalen-1-yl)ureido)-3-(thiophen-2-yl)-1H-pyrazol-1-yl)phenyl)acetic acid] | 13
2 | O=C(Cc1cccc(-n2nc(-c3ccccc3F)cc2NC(=O)Nc2ccc(F)c(F)c2F)c1)NCC(O)CO (stereo not drawn) [Example 424, 1-(1-(3-(2-(2,3-Dihydroxypropylamino)-2-oxoethyl)phenyl)-3-(2-fluorophenyl)-1H-pyrazol-5-yl)-3-(2,3,4-trifluorophenyl)urea] | 47
3 | COC[C@@H]1CCCN1C(=O)Cc1cccc(-n2nc(C(C)(C)C)cc2NC(=O)Nc2cccc(Cl)c2Cl)c1 [Example 409, 1-(3-t-butyl-1-(3-(2-((S)-2-(methoxymethyl)pyrrolidin-1-yl)-2-oxoethyl)phenyl)-1H-pyrazol-5-yl)-3-(2,3-dichlorophenyl)urea] | 150
4 | NC(=O)Cc1cccc(-n2nc(-c3ccccc3F)cc2NC(=O)N[C@H]2CCc3ccccc32)c1 [Example 411, 1-(1-(3-(2-amino-2-oxoethyl)phenyl)-3-(2-fluorophenyl)-1H-pyrazol-5-yl)-3-((S)-2,3-dihydro-1H-inden-1-yl)urea] | 37
5 | O=C(Cc1ccc(-n2nc(-c3cccc(F)c3)cc2NC(=O)Nc2cccc(Cl)c2Cl)cc1)NCC(O)CO (stereo not drawn) [Example 481, 1-(2,3-dichlorophenyl)-3-(1-(4-(2-(2,3-dihydroxypropylamino)-2-oxoethyl)phenyl)-3-(3-fluorophenyl)-1H-pyrazol-5-yl)urea] | 33
6 | CNC(=O)Cc1cccc(-n2nc(C(C)(C)C)cc2NC(=O)Nc2cccc(F)c2F)c1 [Example 401, 1-(3-t-butyl-1-(3-(2-(methylamino)-2-oxoethyl)phenyl)-1H-pyrazol-5-yl)-3-(2,3-difluorophenyl)urea] | 63
7 | O=C(O)Cc1cccc(-n2nc(-c3nccs3)cc2NC(=O)Nc2cccc(Cl)c2Cl)c1 [Example 359, 2-(3-(5-(3-(2,3-dichlorophenyl)ureido)-3-(thiazol-2-yl)-1H-pyrazol-1-yl)phenyl)acetic acid] | 70
8 | CN(C)[C@H]1CCN(C(=O)Cc2cccc(-n3nc(C4CCCC4)cc3NC(=O)Nc3cccc(Cl)c3Cl)c2)C1 [Example 419, 1-(3-cyclopentyl-1-(3-(2-((S)-3-(dimethylamino)pyrrolidin-1-yl)-2-oxoethyl)phenyl)-1H-pyrazol-5-yl)-3-(2,3-dichlorophenyl)urea] | 38
9 | COC[C@@H]1CCCN1C(=O)Cc1ccc(-n2nc(C(C)(C)C)cc2NC(=O)Nc2cccc(Cl)c2Cl)cc1 [Example 485, (S)-1-(3-t-butyl-1-(4-(2-(2-(methoxymethyl)pyrrolidin-1-yl)-2-oxoethyl)phenyl)-1H-pyrazol-5-yl)-3-(2,3-dichlorophenyl)urea] | 12
10 | O=C(O)Cc1cccc(-n2nc(-c3cccs3)cc2NC(=O)Nc2ccc(F)c(F)c2F)c1 [Example 365, 2-(3-(3-(thiophen-2-yl)-5-(3-(2,3,4-trifluorophenyl)-ureido)-1H-pyrazol-1-yl)phenyl)acetic acid] | 70
11 | NC(=O)Cc1ccc(-n2nc(-c3cccs3)cc2NC(=O)N[C@H]2CCc3ccccc32)cc1 [Example 489, 1-(1-(4-(2-amino-2-oxoethyl)phenyl)-3-(thiophen-2-yl)-1H-pyrazol-5-yl)-3-((S)-2,3-dihydro-1H-inden-1-yl)urea] | 35
12 | CNC(=O)Cc1cccc(-n2nc(C(C)(C)C)cc2NC(=O)Nc2ccc(F)c(F)c2F)c1 [Example 402, 1-(3-t-butyl-1-(3-(2-(methylamino)-2-oxoethyl)phenyl)-1H-pyrazol-5-yl)-3-(2,3,4-trifluorophenyl)urea] | 26
13 | O=C(Cc1cccc(-n2nc(-c3cccs3)cc2NC(=O)N[C@H]2CCc3ccccc32)c1)NCC(O)CO (stereo partly drawn) [Example 417, 1-((S)-2,3-dihydro-1H-inden-1-yl)-3-(1-(3-(2-(2,3-dihydroxypropylamino)-2-oxoethyl)phenyl)-3-(thiophen-2-yl)-1H-pyrazol-5-yl)urea] | 29
14 | O=C(O)Cc1cccc(-n2nc(-c3ccccc3F)cc2NC(=O)Nc2cccc3ccccc23)c1 [Example 363, 2-(3-(3-(2-Fluorophenyl)-5-(3-(naphthalen-1-yl)ureido)-1H-pyrazol-1-yl)phenyl)acetic acid] | 13
15 | O=C(Cc1ccc(-n2nc(-c3cccs3)cc2NC(=O)N[C@H]2CCc3ccccc32)cc1)NCCO [Example 490, 1-((S)-2,3-dihydro-1H-inden-1-yl)-3-(1-(4-(2-(2-hydroxyethylamino)-2-oxoethyl)phenyl)-3-(thiophen-2-yl)-1H-pyrazol-5-yl)urea] | 53
16 | CC(C)(C)c1cc(NC(=O)Nc2ccc(F)c(F)c2F)n(-c2ccc(CC(N)=O)cc2)n1 [Example 466, 1-(1-(4-(2-amino-2-oxoethyl)phenyl)-3-t-butyl-1H-pyrazol-5-yl)-3-(2,3,4-trifluorophenyl)urea] | 22
17 | O=C(Cc1cccc(-n2nc(-c3ccccc3F)cc2NC(=O)Nc2cccc3ccccc23)c1)NCC(O)CO (stereo not drawn) [Example 425, 1-(1-(3-(2-(2,3-dihydroxypropylamino)-2-oxoethyl)phenyl)-3-(2-fluorophenyl)-1H-pyrazol-5-yl)-3-(naphthalen-1-yl)urea] | 29
18 | O=C(Cc1cccc(-n2nc(-c3ccccc3F)cc2NC(=O)Nc2cccc3ccccc23)c1)NCCO [Example 426, 1-(3-(2-fluorophenyl)-1-(3-(2-(2-hydroxyethylamino)-2-oxoethyl)phenyl)-1H-pyrazol-5-yl)-3-(naphthalen-1-yl)urea] | 38
19 | O=C(O)Cc1cccc(-n2nc(-c3ccccc3F)cc2NC(=O)N[C@H]2CCc3ccccc32)c1 [Example 360, 2-(3-(5-(3-((S)-2,3-dihydro-1H-inden-1-yl)ureido)-3-(2-fluorophenyl)-1H-pyrazol-1-yl)phenyl)acetic acid] | 20
20 | CC(C)(C)c1cc(NC(=O)Nc2ccc(Cl)cc2)n(-c2cccc(CO)c2)n1 [Example 224] | 38
21 | CC(C)(C)c1cc(NC(=O)Nc2cccc(Cl)c2Cl)n(-c2cccc(CC(=O)N3CCC[C@H]3CO)c2)n1 [Example 408, 1-(3-t-butyl-1-(3-(2-((S)-2-(hydroxymethyl)pyrrolidin-1-yl)-2-oxoethyl)phenyl)-1H-pyrazol-5-yl)-3-(2,3-dichlorophenyl)urea] | 46
22 | O=C(Cc1cccc(-n2nc(-c3ccccc3F)cc2NC(=O)N[C@H]2CCc3ccccc32)c1)NCC(O)CO (stereo partly drawn) [Example 413, 1-((S)-2,3-dihydro-1H-inden-1-yl)-3-(1-(3-(2-(2,3-dihydroxypropylamino)-2-oxoethyl)phenyl)-3-(2-fluorophenyl)-1H-pyrazol-5-yl)urea] | 28
23 | O=C(Cc1cccc(-n2nc(-c3cccs3)cc2NC(=O)N[C@H]2CCc3ccccc32)c1)NCCO [Example 416, 1-((S)-2,3-dihydro-1H-inden-1-yl)-3-(1-(3-(2-(2-hydroxyethylamino)-2-oxoethyl)phenyl)-3-(thiophen-2-yl)-1H-pyrazol-5-yl)urea] | 32
24 | NC(=O)Cc1cccc(-n2nc(-c3ccccc3F)cc2NC(=O)Nc2ccc(F)c(F)c2F)c1 [Example 422, 1-(1-(3-(2-Amino-2-oxoethyl)phenyl)-3-(2-fluorophenyl)-1H-pyrazol-5-yl)-3-(2,3,4-trifluorophemyl)urea] | 98
25 | O=C(O)Cc1ccc(-n2nc(-c3cccs3)cc2NC(=O)N[C@H]2CCc3ccccc32)cc1 [Example 389, 2-(4-(5-(3-((S)-2,3-dihydro-1H-inden-1-yl)ureido)-3-(thiophen-2-yl)-1H-pyrazol-1-yl)phenyl)acetic acid] | 13
26 | O=C(O)Cc1cccc(-n2nc(-c3cccs3)cc2NC(=O)N[C@H]2CCc3ccccc32)c1 [Example 361, 2-(3-(5-(3-((S)-2,3-dihydro-1H-inden-1-yl)ureido)-3-(thiophen-2-yl)-1H-pyrazol-1-yl)phenyl)acetic acid] | 30
27 | O=C(Cc1cccc(-n2nc(-c3cccs3)cc2NC(=O)Nc2cccc3ccccc23)c1)NCCO [Example 428, 1-(1-(3-(2-(2-hydroxyethylamino)-2-oxoethyl)phenyl)-3-(thiophen-2-yl)-1H-pyrazol-5-yl)-3-(naphthalen-1-yl)urea] | 12

Target: B-Raf(V599E) kinase (Homo sapiens, UniProt P15056, V600E)
Sequence (P15056 with tags, fused parts or gaps V600E): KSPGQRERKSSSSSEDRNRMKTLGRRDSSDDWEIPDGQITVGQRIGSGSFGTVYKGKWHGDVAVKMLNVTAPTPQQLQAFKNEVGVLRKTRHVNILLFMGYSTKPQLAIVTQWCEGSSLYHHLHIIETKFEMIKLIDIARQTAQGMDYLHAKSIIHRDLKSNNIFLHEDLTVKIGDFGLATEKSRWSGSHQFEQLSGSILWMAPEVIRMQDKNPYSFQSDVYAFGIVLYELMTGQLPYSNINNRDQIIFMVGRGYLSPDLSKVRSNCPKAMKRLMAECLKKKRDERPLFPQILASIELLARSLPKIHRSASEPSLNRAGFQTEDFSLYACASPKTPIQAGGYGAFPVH
Assay: B-Raf(V599E) kinase assay B1 (construct 1, MEK1 substrate, coupled spectrophotometric)
Type: biochemical
Settings: not given
Experimental: The test compounds were incubated with the reaction mixtureat 30° C. for 2 h. […] The reaction rate was calculated using the […] time frame. […] IC50 values were calculated from a series of percent inhibition values determined at a range of inhibitor concentrations using software routines as implemented in the GraphPad Prism software package.

Row | SMILES | IC50 [nM]
28 | CCOC(=O)c1cc(-n2nc(C(C)(C)C)cc2NC(=O)Nc2ccc(F)cc2F)cc2ccccc12 [Example 289, ethyl 3-(3-t-butyl-5-(3-(2,4-difluorophenyl)ureido)-1H-pyrazol-1-yl)-1-naphthoate] | 28
29 | CC(C)(C)c1cc(NC(=O)Nc2ccc(Cl)cc2)n(-c2ccc3c(c2)CCC(=O)N3)n1 [Example 315, 1-(3-t-butyl-1-(2-oxo-1,2,3,4-tetrahydro-quinolin-6-yl)-1H-pyrazol-5-yl)-3-(4-chlorophenyl)urea] | 186
30 | CC(C)(C)c1cc(NC(=O)Nc2cccc(Cl)c2Cl)n(-c2cccc(CC(N)=O)c2)n1 [Example 25, 1-{1-[3-(2-amino-2-oxoethyl)phenyl]-3-t-butyl-1H-pyrazol-5-yl}-3-(2,3-dichlorophenyl)urea] | 3.5
31 | CC(C)(C)c1cc(NC(=O)NC2CCCCC2)n(-c2ccc3c(c2)CNCC3)n1 [Example 327, 1-(3-t-butyl-1-(1,2,3,4-tetrahydroisoquinolin-7-yl)-1H-pyrazol-5-yl)-3-cyclohexylurea] | 330
32 | CC(C)(C)c1cc(NC(=O)Nc2cccc(Cl)c2Cl)n(-c2ccc(CC(N)=O)cc2)n1 [Example 492, 1-(1-(4-(2-amino-2-oxoethyl)phenyl)-3-t-butyl-1H-pyrazol-5-yl)-3-(2,3-dichlorophenyl)urea] | 6.4

Same assay, conditions: Method B1; read-out: B-Raf Data

Row | SMILES | IC50 [nM]
33 | O=C(O)Cc1cccc(-n2nc(-c3cccs3)cc2NC(=O)Nc2cccc(Cl)c2Cl)c1 [Example 366, 2-(3-(5-(3-(2,3-dichlorophenyl)-ureido)-3-(thiophen-2-yl)-1H-pyrazol-1-yl)phenyl)acetic acid] | 157
